# Values quoted from earlier work, collected in paper PMC6819114, “Peptide-conjugated oligonucleotides evoke long-lasting myotonic dystrophy correction in patient-derived cells and mice” (The Journal of Clinical Investigation, 2019).
# Excerpt: Among strategies to improve delivery of ASOs in DM1 skeletal muscles, cell-penetrating peptide conjugates offer an attractive avenue ([22]–[24]). Indeed, systemic administration of advanced Pip6a peptides conjugated with splice-switch oligonucleotides has shown promising results in DMD mice by restoring a truncated but functional dystrophin ([25]). Pip6a is a cell-penetrating peptide composed of a hydrophobic core region flanked on each side by arginine-rich domains containing β-alanine and aminohexanoyl spacers. This peptide sequence has the ability to deliver associated cargoes across the pl ...
substance,measurement,value
"Ac-(RXRRBRRXRYQF LIRXRBRXRB)-CO OH [Pip6a, arginine-rich cell-penetrating peptide: hydrophobic core flanked by arginine-rich domains containing β-alanine and aminohexanoyl spacers]",stability to serum proteolysis,stable
